Test results: US20100041722A1, “ORGANIC COMPOUNDS” (priority 2006, published 2010)

Tests used:
[1] = target: T1, aldosterone synthase (CYP11B2) (Homo sapiens, UniProt P19099); assay: in vitro aldosterone synthase inhibition: aldosterone production in Ang II-stimulated NCI-H295R cells; type: cell-based; details: Table 1, read-out: AS IC50
T1 construct: host or cells: NCI-H295R human adrenocortical carcinoma cells
T1 sequence (P19099 25-503): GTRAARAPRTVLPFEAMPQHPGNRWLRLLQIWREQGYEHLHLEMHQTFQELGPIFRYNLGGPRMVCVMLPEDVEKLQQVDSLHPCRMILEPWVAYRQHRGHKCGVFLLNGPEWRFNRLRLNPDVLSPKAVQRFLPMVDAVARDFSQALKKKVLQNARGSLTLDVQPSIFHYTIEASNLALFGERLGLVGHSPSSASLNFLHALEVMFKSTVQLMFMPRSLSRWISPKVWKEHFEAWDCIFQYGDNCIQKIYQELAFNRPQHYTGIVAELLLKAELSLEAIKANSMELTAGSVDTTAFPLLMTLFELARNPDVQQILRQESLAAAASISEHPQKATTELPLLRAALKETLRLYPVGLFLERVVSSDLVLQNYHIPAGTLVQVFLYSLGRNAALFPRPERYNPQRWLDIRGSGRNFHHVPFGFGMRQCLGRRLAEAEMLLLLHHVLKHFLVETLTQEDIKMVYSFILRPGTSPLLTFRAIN
Source text: Human adrenocortical carcinoma NCl-H295R cell line is obtained from American Type Culture Collection (Manassas, Va.). Insulin/transferrin/selenium (ITS)-A supplement (100×), DMEM/F-12, antibiotic/antimycotic (100×), and fetal calf serum (FCS) are purchased from Gibco (Grand Island, N.Y.). Anti-mouse PVT scintillation proximity assay (SPA) beads and NBS 96-well plates are obtained from Amersham (Piscataway, N.J.) and Corning (Acton, Mass.), respectively. Solid black 96-well flat bottom plates are purchased from Costar (Corning, N.Y.). Aldosterone and angiotensin (Ang II) are purchased from Sigma (St. Louis, Mo.). D-[1,2,6,7-^3H(N)]aldosterone was acquired from PerkinElmer (Boston, Mass.). Nu-serum was a product of BD Biosciences (Franklin Lakes, N.J.). The NADPH regenerating system, dibenzylfluorescein (DBF), and human aromatase supersomes® are obtained from Gentest (Woburn, Mass.).
For in vitro measurement of aldosterone activity, human adrenocortical carcinoma NCl-H295R cells are seeded in NBS 96-well plates at a density of 25,000 cells/well in 100 μl of a growth medium containing DMEM/F12 supplemented with 10% FCS, 2.5% Nu-serum, 1 μg ITS/ml, and 1× antibiotic/antimycotic. The medium is changed after culturing for 3 days at 37° C. under an atmosphere of 5% CO2/95% air. On the following day, cells are rinsed with 100 μl of DMEM/F12 and incubated with 100 μl of treatment medium containing 1 μM Ang II and a compound at different concentrations in quadruplicate wells at 37° C. for 24 hr. At the end of incubation, 50 μl of medium is withdrawn from each well for measurement of aldosterone production by an RIA using mouse anti-aldosterone monoclonal antibodies.
Measurement of aldosterone activity can also be performed using a 96-well plate format. Each test sample is incubated with 0.02 μCi of D-[1,2,6,7-^3H(N)]aldosterone and 0.3 μg of anti-aldosterone antibody in phosphate-buffered saline (PBS) containing 0.1% Triton X-100, 0.1% bovine serum albumin; and 12% glycerol in a total volume of 200 μl at room temperature for 1 hr. Anti-mouse PVT SPA beads (50 μl) are then added to each well and incubated overnight at room temperature prior to counting in a Microbeta plate counter. The amount of aldosterone in each sample is calculated by comparing with a standard curve generated using known quantities of the hormone.
Full concentration-response curves of the test compound are performed at least 3 times. The IC50 values are derived using a non-linear least squares curve-fitting program from Microsoft XLfit.

[2] = target: T2, CYP11B1 (steroid 11β-hydroxylase) (Homo sapiens, UniProt P15538); assay: in vitro CYP11B1 inhibition: steroid release from NCI-H295R cells; type: cell-based; details: Table 1
T2 construct: Thus, the NCl-H295R cells have CYP11B1 (steroid 11 p-hydroxylase); host or cells: NCI-H295R human adrenocortical carcinoma cells
T2 sequence (P15538 25-503): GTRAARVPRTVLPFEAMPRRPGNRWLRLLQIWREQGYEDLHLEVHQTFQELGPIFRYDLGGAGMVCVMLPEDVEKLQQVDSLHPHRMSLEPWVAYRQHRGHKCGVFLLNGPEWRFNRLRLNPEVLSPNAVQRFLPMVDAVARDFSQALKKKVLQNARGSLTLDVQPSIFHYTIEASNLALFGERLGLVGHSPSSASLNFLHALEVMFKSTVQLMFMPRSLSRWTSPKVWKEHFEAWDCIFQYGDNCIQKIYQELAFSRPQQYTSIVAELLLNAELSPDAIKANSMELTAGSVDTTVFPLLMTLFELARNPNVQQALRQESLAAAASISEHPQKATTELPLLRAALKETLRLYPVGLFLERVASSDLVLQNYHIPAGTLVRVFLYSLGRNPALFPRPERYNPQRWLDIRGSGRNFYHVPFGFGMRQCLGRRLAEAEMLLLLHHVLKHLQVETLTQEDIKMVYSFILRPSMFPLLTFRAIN
Source text: The in vitro inhibitory activities for CYP11B1 can be determined by the following assay.
The cell line NCl-H295R was originally isolated from an adrenocortical carcinoma and has been characterized in the literature through the stimulable secretion of steroid hormones and the presence of the enymes essential for steroidogenesis. Thus, the NCl-H295R cells have CYP11B1 (steroid 11 p-hydroxylase). The cells show the physiological property of zonally undifferentiated human foetal adrenocortical cells which, however, have the capacity to produce the steroid hormones which are formed in the three, phenotypically distinguishable zones in the adult adrenal cortex. […]
The excretion of aldosterone, cortisol, corticosterone and estradiol/estrone into the culture medium can be detected and quantified by commercially available, specific monoclonal antibodies in radioimmunoassays in accordance with the manufacturer's instructions.
Inhibition of the release of certain steroids can be used as a measure of the respective enzyme inhibition by the added test compounds. The dose-dependent inhibition of enzymic activity by a compound is calculated by means of an inhibition plot which is characterized by an IC50.
The IC50 values for active test compounds are ascertained by a simple linear regression analysis in order to construct inhibition plots without data weighting. The inhibition plot is calculated by fting a 4-parameter logistic function to the raw data points using the least squares method. The equation of the 4-parameter logistic function is calculated as follows: Y=(d−a)/((1+(x/c)b))+a I where: a=minimum data level b=gradient I c=ICED d=maximum data level x=inhibitor concentration.

Compound	IC50 [1] [µM]	IC50 [2] [µM]
Cc1noc(-c2cncn2C2Cc3ccccc3C2)n1 [LDK260, 5-(3-Indan-2-yl-3H-imidazol-4-yl)-3-methyl-[1,2,4]oxadiazole]	0.095	0.725
COC(=O)c1cncn1C1CCc2ccccc2C1 (centres unmarked) [LDI154, 3-(1,2,3,4-Tetrahydro-naphthalen-2-yl)-3H-imidazole-4-carboxylic acid methyl ester]	0.006	0.042
COC(=O)c1cncn1C1COc2ccccc2OC1 [LDS237, 3-(3,4-Dihydro-2H-benzo[b][1,4]dioxepin-3-yl)-3H-imidazole-4-carboxylic acid methyl ester]	0.214	–

Continued, in another order:

IC50 [1] [µM]	Compound	IC50 [2] [µM]
0.009	COC(=O)c1cn(C2Cc3ccccc3C2)cn1 [LDG688, 1-Indan-2-yl-1H-imidazole-4-carboxylic acid methyl ester]	0.107
0.378	ON=Cc1cncn1C1Cc2ccccc2C1 [LDK909, 3-Indan-2-yl-3H-imidazole-4-carbaldehyde oxime]	–
